Results as given in patent EP3558896B1, “USE OF ARYL S[…] TRIAMIDE UREASE INHIBITORS WITH PHOSPHORUS-[…] FERTILIZERS” (BASF SE, priority 2016, dated 2018).

Test: Decomposition of urease inhibitors on treated urea granules mixed with triple super phosphate (TSP) granules
Type: physicochemical
Conditions: after one day in the absence of TSP granules

## CCCCNP(N)(N)=S [NBPT, N-n-butylthiophosphoric acid triamide]
  decomposition of the urease inhibitors: no decomposition

## CCCNP(N)(N)=S [NPPT, N-n-propylthiophosphoric acid triamide]
  decomposition of the urease inhibitors: no decomposition
